According to paper PMC4823954, “From fighting depression to conquering tumors: a novel tricyclic thiazepine compound as a tubulin polymerization inhibitor” (Cell Death & Disease, 2016):

Assays:
Assay in all cases: KINOMEscan
Assay type in all cases: binding
Settings in all cases: read-out: % Ctrl
[1] = target: T1, ABL1(F317L)-nonphosphorylated (Homo sapiens, UniProt P00519, F317L)
T1 construct: purchased DiscoveRx KINOMEscan

[2] = target: T2, ABL1(Q252H)-nonphosphorylated (Homo sapiens, UniProt P00519, Q252H)
T2 construct: purchased DiscoveRx KINOMEscan

ACVR2A = target: T3, ACVR2A (Homo sapiens, UniProt P27037)
T3 construct: purchased DiscoveRx KINOMEscan
Procedure, shortened: (§1)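 Competition binding panel of 442 non-mutant kinases: test compound at 5 and 10 μM competed with an active-site-directed ligand for 1 h with shaking. Bound kinase was eluted with 0.5 μM ligand and quantified by qPCR; %Ctrl = (compound − positive control)/(DMSO − positive control) × 100, lower meaning tighter binding.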

ALK = target: T4, ALK (Homo sapiens, UniProt Q9UM73)
T4 construct: purchased DiscoveRx KINOMEscan
Procedure, shortened: as §1

AMPK-alpha2 = target: T5, AMPK-alpha2 (Homo sapiens, UniProt P54646)
T5 construct: purchased DiscoveRx KINOMEscan
Procedure, shortened: as §1

BIKE = target: T6, BIKE (Homo sapiens, UniProt Q9NSY1)
T6 construct: purchased DiscoveRx KINOMEscan
Procedure, shortened: as §1

BMPR1A = target: T7, BMPR1A (Homo sapiens, UniProt P36894)
T7 construct: purchased DiscoveRx KINOMEscan
Procedure, shortened: as §1

BRSK2 = target: T8, BRSK2 (Homo sapiens, UniProt Q8IWQ3)
T8 construct: purchased DiscoveRx KINOMEscan
Procedure, shortened: as §1

CAMK1 = target: T9, CAMK1 (Homo sapiens, UniProt Q14012)
T9 construct: purchased DiscoveRx KINOMEscan
Procedure, shortened: as §1

CAMKK1 = target: T10, CAMKK1 (Homo sapiens, UniProt Q8N5S9)
T10 construct: purchased DiscoveRx KINOMEscan
Procedure, shortened: as §1

CAMKK2 = target: T11, CAMKK2 (Homo sapiens, UniProt Q96RR4)
T11 construct: purchased DiscoveRx KINOMEscan
T11 sequence (Q96RR4 whole entry): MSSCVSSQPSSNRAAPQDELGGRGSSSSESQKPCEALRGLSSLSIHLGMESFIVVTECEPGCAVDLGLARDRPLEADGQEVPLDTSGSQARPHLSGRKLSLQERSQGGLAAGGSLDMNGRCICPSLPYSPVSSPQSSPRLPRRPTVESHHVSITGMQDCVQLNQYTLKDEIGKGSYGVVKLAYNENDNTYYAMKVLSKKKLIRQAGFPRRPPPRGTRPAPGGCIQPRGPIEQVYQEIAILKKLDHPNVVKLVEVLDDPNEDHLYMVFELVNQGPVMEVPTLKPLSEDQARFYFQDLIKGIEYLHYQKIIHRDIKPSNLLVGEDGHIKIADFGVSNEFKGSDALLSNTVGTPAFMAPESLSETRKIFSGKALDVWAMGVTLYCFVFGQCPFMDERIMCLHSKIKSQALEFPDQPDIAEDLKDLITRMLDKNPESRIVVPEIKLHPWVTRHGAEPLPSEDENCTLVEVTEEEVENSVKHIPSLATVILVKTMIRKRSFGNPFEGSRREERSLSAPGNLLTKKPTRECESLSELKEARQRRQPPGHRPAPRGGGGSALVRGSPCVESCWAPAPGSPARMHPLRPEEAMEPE
Procedure, shortened: as §1

CDK4-cyclinD1 = target: T12, CDK4-cyclinD1 (Homo sapiens, UniProt P11802)
T12 construct: purchased DiscoveRx KINOMEscan
Procedure, shortened: as §1

CDK5 = target: T13, CDK5 (Homo sapiens, UniProt Q00535)
T13 construct: purchased DiscoveRx KINOMEscan
Procedure, shortened: as §1

CDK9 = target: T14, CDK9 (Homo sapiens, UniProt P50750)
T14 construct: purchased DiscoveRx KINOMEscan
Procedure, shortened: as §1

CHEK1 = target: T15, CHEK1 (Homo sapiens, UniProt O14757)
T15 construct: purchased DiscoveRx KINOMEscan
Procedure, shortened: as §1

EPHB3 = target: T16, EPHB3 (Homo sapiens, UniProt P54753)
T16 construct: purchased DiscoveRx KINOMEscan
Procedure, shortened: as §1

ERK3 = target: T17, ERK3 (Homo sapiens, UniProt Q16659)
T17 construct: purchased DiscoveRx KINOMEscan
T17 sequence (Q16659 whole entry): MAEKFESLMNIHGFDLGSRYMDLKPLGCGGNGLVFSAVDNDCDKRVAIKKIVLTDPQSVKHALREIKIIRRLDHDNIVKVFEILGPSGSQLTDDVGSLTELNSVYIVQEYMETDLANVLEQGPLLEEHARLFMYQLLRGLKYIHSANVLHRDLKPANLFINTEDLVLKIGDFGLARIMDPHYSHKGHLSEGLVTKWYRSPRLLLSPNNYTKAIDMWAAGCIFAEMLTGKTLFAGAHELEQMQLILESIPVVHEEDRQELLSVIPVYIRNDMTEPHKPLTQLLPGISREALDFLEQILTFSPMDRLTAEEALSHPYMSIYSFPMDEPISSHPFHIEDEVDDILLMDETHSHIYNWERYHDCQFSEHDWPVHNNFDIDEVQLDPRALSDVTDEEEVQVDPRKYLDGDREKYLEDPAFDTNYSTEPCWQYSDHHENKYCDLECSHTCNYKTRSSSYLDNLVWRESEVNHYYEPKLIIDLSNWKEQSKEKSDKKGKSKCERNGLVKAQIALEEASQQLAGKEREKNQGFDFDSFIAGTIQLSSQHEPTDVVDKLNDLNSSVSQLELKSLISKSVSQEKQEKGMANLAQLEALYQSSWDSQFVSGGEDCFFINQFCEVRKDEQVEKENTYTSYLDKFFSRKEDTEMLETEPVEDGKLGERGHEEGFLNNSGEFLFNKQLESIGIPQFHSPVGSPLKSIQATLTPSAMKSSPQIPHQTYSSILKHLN
Procedure, shortened: as §1

[3] = target: T18, JAK1(JH2domain-pseudokinase) (Homo sapiens, UniProt P23458)
T18 construct: JAK1(JH2domain-pseudokinase); purchased DiscoveRx KINOMEscan
Procedure, shortened: as §1

LCK = target: T19, LCK (Homo sapiens, UniProt P06239)
T19 construct: purchased DiscoveRx KINOMEscan
Procedure, shortened: as §1

MAP4K4 = target: T20, MAP4K4 (Homo sapiens, UniProt O95819)
T20 construct: purchased DiscoveRx KINOMEscan
T20 sequence (O95819 whole entry): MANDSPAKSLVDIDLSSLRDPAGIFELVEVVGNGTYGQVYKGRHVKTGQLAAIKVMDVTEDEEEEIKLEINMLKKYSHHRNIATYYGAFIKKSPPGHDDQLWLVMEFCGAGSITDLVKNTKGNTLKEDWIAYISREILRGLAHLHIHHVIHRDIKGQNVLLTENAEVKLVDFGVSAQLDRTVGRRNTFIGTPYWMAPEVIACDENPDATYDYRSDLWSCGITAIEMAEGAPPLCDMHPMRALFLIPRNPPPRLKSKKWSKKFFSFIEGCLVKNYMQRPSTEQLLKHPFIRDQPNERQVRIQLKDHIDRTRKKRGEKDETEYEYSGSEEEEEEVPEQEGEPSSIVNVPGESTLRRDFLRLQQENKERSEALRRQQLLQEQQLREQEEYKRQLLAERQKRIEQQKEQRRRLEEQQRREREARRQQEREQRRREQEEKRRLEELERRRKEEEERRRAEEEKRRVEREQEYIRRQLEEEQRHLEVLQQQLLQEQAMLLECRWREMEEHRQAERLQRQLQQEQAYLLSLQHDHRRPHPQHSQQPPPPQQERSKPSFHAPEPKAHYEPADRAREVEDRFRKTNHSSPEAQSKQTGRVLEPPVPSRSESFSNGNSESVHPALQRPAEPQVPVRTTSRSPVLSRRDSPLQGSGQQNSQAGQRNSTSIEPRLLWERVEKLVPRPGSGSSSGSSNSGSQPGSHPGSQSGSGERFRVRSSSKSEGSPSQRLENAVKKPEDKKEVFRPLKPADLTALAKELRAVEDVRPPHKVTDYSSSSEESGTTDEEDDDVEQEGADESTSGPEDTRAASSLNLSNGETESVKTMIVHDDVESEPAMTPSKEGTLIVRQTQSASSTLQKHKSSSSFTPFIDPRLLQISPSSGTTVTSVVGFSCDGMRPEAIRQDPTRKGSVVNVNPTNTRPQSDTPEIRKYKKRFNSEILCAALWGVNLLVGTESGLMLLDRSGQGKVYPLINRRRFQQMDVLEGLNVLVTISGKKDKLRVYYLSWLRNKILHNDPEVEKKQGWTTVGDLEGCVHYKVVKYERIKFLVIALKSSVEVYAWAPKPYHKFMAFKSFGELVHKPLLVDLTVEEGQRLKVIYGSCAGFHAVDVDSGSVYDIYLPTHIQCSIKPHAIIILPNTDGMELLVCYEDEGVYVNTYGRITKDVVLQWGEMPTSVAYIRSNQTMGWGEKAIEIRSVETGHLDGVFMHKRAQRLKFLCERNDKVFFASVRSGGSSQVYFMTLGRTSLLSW
Procedure, shortened: as §1

MEK2 = target: T21, MEK2 (Homo sapiens, UniProt P36507)
T21 construct: purchased DiscoveRx KINOMEscan
T21 sequence (P36507 whole entry): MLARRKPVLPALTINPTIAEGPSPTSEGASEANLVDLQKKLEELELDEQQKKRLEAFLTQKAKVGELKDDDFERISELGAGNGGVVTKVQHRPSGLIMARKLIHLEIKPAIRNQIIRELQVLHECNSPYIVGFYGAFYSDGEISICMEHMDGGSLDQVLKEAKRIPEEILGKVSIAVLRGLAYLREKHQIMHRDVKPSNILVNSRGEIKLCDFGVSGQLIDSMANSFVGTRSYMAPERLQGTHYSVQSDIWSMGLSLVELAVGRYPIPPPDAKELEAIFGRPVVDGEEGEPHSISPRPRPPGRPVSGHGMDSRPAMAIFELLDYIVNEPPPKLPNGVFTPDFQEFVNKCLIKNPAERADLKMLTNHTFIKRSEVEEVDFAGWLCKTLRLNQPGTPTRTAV
Procedure, shortened: as §1

MEK4 = target: T22, MEK4 (Homo sapiens, UniProt P45985)
T22 construct: purchased DiscoveRx KINOMEscan
Procedure, shortened: as §1

MEK6 = target: T23, MEK6 (Homo sapiens, UniProt P52564)
T23 construct: purchased DiscoveRx KINOMEscan
Procedure, shortened: as §1

MLK3 = target: T24, MLK3 (Homo sapiens, UniProt Q16584)
T24 construct: purchased DiscoveRx KINOMEscan
T24 sequence (Q16584 whole entry): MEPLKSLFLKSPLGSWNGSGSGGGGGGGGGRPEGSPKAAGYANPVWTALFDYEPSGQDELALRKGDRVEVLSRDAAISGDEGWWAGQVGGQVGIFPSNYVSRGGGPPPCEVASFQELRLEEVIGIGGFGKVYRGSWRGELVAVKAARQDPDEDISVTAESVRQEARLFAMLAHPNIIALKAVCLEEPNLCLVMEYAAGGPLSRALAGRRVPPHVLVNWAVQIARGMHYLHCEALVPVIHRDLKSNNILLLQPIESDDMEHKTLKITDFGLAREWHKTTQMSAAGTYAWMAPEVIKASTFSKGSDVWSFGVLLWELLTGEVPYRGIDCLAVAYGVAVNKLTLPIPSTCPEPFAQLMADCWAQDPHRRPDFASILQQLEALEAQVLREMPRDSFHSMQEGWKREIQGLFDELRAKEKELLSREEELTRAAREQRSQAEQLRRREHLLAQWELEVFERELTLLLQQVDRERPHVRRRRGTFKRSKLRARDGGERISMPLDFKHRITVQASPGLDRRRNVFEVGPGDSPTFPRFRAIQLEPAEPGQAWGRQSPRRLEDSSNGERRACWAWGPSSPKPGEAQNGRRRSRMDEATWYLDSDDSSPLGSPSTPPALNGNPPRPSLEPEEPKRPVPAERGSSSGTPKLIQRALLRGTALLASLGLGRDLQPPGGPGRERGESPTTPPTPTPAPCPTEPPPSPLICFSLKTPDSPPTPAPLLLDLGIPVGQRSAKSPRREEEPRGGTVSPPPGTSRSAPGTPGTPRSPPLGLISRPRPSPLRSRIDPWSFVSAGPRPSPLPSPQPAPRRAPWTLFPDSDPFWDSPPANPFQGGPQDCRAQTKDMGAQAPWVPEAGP
Procedure, shortened: as §1

MYLK4 = target: T25, MYLK4 (Homo sapiens, UniProt Q86YV6)
T25 construct: purchased DiscoveRx KINOMEscan
Procedure, shortened: as §1

PIK3CA(E545K) = target: T26, PIK3CA(E545K) (Homo sapiens, UniProt P42336, E545K)
T26 construct: purchased DiscoveRx KINOMEscan
T26 sequence (P42336 whole entry E545K): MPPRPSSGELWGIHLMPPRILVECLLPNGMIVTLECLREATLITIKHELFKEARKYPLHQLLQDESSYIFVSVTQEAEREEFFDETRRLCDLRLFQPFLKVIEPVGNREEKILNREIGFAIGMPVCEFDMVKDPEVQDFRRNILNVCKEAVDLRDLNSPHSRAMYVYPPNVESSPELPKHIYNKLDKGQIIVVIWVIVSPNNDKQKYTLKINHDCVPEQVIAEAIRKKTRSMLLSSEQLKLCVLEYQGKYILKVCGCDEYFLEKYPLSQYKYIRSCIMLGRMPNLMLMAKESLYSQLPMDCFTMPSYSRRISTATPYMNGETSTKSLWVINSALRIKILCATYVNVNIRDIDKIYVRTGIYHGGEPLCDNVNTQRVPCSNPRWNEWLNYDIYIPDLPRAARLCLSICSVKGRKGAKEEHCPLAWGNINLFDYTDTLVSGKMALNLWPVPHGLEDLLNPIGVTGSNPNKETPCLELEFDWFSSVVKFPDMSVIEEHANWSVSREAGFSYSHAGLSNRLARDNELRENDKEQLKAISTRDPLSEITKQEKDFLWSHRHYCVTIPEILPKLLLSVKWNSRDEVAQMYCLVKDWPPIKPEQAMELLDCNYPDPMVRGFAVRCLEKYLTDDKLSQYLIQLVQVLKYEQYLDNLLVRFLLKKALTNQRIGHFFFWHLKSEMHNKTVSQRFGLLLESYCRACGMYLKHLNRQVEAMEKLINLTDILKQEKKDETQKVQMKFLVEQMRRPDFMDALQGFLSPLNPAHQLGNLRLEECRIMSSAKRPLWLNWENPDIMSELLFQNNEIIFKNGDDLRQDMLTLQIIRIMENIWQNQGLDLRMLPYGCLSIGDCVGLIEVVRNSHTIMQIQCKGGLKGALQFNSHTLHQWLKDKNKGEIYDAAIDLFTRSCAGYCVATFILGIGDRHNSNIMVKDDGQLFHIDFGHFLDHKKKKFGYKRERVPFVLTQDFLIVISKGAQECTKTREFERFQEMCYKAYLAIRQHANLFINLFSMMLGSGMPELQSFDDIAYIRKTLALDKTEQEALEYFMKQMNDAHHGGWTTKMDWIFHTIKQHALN

[4] = target: T27, RSK4(Kin.Dom.1-N-terminal) (Homo sapiens, UniProt Q9UK32)
T27 construct: RSK4(Kin.Dom.1-N-terminal); purchased DiscoveRx KINOMEscan
Procedure, shortened: as §1

TNIK = target: T28, TNIK (Homo sapiens, UniProt Q9UKE5)
T28 construct: purchased DiscoveRx KINOMEscan
Procedure, shortened: as §1

TRKC = target: T29, TRKC (Homo sapiens, UniProt Q16288)
T29 construct: purchased DiscoveRx KINOMEscan
Procedure, shortened: as §1

Compound: Cc1ccc(C2=Nc3cccnc3S(=O)(=O)c3ccccc32)cc1 [TBPT, 6-(p-tolyl)benzo[f] pyrido[2,3-b][1,4] thiazepine 11,11-dioxide]
- remaining binding at 5 µM ([1]; 5 μM): 80%
- remaining binding at 10 µM ([1]; 10 μM): 100%
- remaining binding at 5 µM ([2]; 5 μM): 79%
- remaining binding at 10 µM ([2]; 10 μM): 100%
- remaining binding at 5 µM (ACVR2A; 5 μM): 100%
- remaining binding at 10 µM (ACVR2A; 10 μM): 93%
- remaining binding at 5 µM (ALK; 5 μM): 100%
- remaining binding at 10 µM (ALK; 10 μM): 71%
- remaining binding at 5 µM (AMPK-alpha2; 5 μM): 81%
- remaining binding at 10 µM (AMPK-alpha2; 10 μM): 95%
- remaining binding at 5 µM (BIKE; 5 μM): 87%
- remaining binding at 10 µM (BIKE; 10 μM): 93%
- remaining binding at 5 µM (BMPR1A; 5 μM): 97%
- remaining binding at 10 µM (BMPR1A; 10 μM): 80%
- remaining binding at 5 µM (BRSK2; 5 μM): 100%
- remaining binding at 10 µM (BRSK2; 10 μM): 100%
- remaining binding at 5 µM (CAMK1; 5 μM): 96%
- remaining binding at 10 µM (CAMK1; 10 μM): 98%
- remaining binding at 5 µM (CAMKK1; 5 μM): 100%
- remaining binding at 10 µM (CAMKK1; 10 μM): 92%
- remaining binding at 5 µM (CAMKK2; 5 μM): 97%
- remaining binding at 10 µM (CAMKK2; 10 μM): 83%
- remaining binding at 5 µM (CDK4-cyclinD1; 5 μM): 100%
- remaining binding at 10 µM (CDK4-cyclinD1; 10 μM): 79%
- remaining binding at 5 µM (CDK5; 5 μM): 85%
- remaining binding at 10 µM (CDK5; 10 μM): 98%
- remaining binding at 5 µM (CDK9; 5 μM): 100%
- remaining binding at 10 µM (CDK9; 10 μM): 100%
- remaining binding at 5 µM (CHEK1; 5 μM): 100%
- remaining binding at 10 µM (CHEK1; 10 μM): 100%
- remaining binding at 5 µM (EPHB3; 5 μM): 96%
- remaining binding at 10 µM (EPHB3; 10 μM): 100%
- remaining binding at 5 µM (ERK3; 5 μM): 100%
- remaining binding at 10 µM (ERK3; 10 μM): 100%
- remaining binding at 5 µM ([3]; 5 μM): 100%
- remaining binding at 10 µM ([3]; 10 μM): 100%
- remaining binding at 5 µM (LCK; 5 μM): 97%
- remaining binding at 10 µM (LCK; 10 μM): 100%
- remaining binding at 5 µM (MAP4K4; 5 μM): 94%
- remaining binding at 10 µM (MAP4K4; 10 μM): 63%
- remaining binding at 5 µM (MEK2; 5 μM): 92%
- remaining binding at 10 µM (MEK2; 10 μM): 100%
- remaining binding at 5 µM (MEK4; 5 μM): 82%
- remaining binding at 10 µM (MEK4; 10 μM): 100%
- remaining binding at 5 µM (MEK6; 5 μM): 83%
- remaining binding at 10 µM (MEK6; 10 μM): 100%
- remaining binding at 5 µM (MLK3; 5 μM): 87%
- remaining binding at 10 µM (MLK3; 10 μM): 100%
- remaining binding at 5 µM (MYLK4; 5 μM): 94%
- remaining binding at 10 µM (MYLK4; 10 μM): 99%
- remaining binding at 5 µM (PIK3CA(E545K); 5 μM): 81%
- remaining binding at 10 µM (PIK3CA(E545K); 10 μM): 100%
- remaining binding at 5 µM ([4]; 5 μM): 83%
- remaining binding at 10 µM ([4]; 10 μM): 94%
- remaining binding at 5 µM (TNIK; 5 μM): 84%
- remaining binding at 10 µM (TNIK; 10 μM): 97%
- remaining binding at 5 µM (TRKC; 5 μM): 100%
- remaining binding at 10 µM (TRKC; 10 μM): 96%
